Assays:
Format in all cases: cell-based
[1] = system: mouse hepatocytes in primary culture; test: Apoptosis induced by actinomycin D and Jo2 antibody in mouse hepatocytes in primary culture; details: AR 20 nM; PD153035 1 μM, PD98059 10 μM, LY-294002 20 μM; actinomycin D and Jo2
Description: In order to determine whether the in vivo antiapoptotic effects of AR could be mediated by direct action of AR on liver parenchymal cells, the inventors used mouse hepatocytes in primary culture. It has been reported that hepatocytes exposed to Jo-2 antibodies undergo apoptosis effectively in presence of actinomycin D [(5), (6), (33) Ni, R., Tomita, Y., Matsuda, K., Ichiara, A., Ishimura, K., Ogasawara, J., Nagata, S. 1994. Fas-mediated apoptosis in primary cultured mouse hepatocytes. Exp. Cell Res. 215: 332-337]. Hepatocytes were pretreated with different concentrations of AR during […] before addition of actinomycin D and Jo2 antibody. Measurements of apoptosis and related molecular events, were made 18 h later. […] Likewise, they found antiapoptotic protein Bcl-xL to be induced by treatment with AR in mouse hepatocytes treated with Jo2 (FIG. 4B). In order to identify the AR antiapoptotic signaling mechanisms, PI-3K/Akt and ERK1/2 pathways were studied, as they are general mediators of cell survival [(4), (6)]. […] A key signaling molecule implicated in protection against liver damage induced by Fas is STAT3 [(34) Shen, Y., Devgan, G., Darnell, J. E., Bromberg, J. F. 2001. Constitutively activated Stat3 protects fibroblasts from serum withdrawal and UV-induced apoptosis and antagonizes the proapoptotic effects of activated Statl. Proc. Natl. Acad. Sci. USA. 98: 1543-1548. (35) Haga, S., Terui, K., Zhang, H. Q., Enosawa, S., Ogawa, W., Inoue, H., Okuyama, T., Takeda, K., Akira, S., Ogino, T., et al. 2003. Stat3 protects against Fas-induced liver injury by redox-dependent and -independent mechanisms. J. Clin. Invest. 112: 989-998].
(§1) Hepatocytes were isolated from male Wistar rats (150 g) and C57/BL6 mice (20 g) by perfusion with collagenase (Gibco-BRL, Paisley, UK) as described elsewhere [(18), (20)]. Cells (5×10^5 cells per well) were plated onto 6-well plates coated with collagen (type I collagen, Collaborative Biomedical, Bedford, Mass., USA). Cultures were maintained in MEM medium supplemented with 10% fetal calf serum (FCS), non-essential amino acids, glutamine 2 mM and antibiotics (all supplied by Gibco-BRL). After 2 h of incubation, the medium was removed and cells were again cultured in the same medium with 5% FCS. Where applicable, hepatocytes were treated with IL-1β or TNFα from Roche (Mannheim, Germany), HGF or forskolin from Calbiochem (San Diego, Calif., USA), IL6 from RD Systems (Wiesbaden-Nordenstadt, Germany), or PGE2 from Alexis QBiogene (Carlsbad, Calif., USA).
Apoptosis was induced in cultured mouse hepatocytes by treatment with 0.5 μg/ml of Jo2 antibody and 0.05 μg/ml of actinomycin D as described elsewhere (5). Where applicable, the hepatocytes were treated with AR 6 h before the addition of Jo2 antibody and actinomycin D. Apoptosis was estimated by determining soluble histone-DNA complexes using the Cell Death Detection Assay (Roche). ELISA tests for determining cell death were carried out following the manufacturer's instructions. The specific enrichment of mono- and oligonucleosomes released in the cytoplasm (enrichment factor, EF) was calculated as the ratio between the absorbance values of the samples corresponding to treated cells and control cells. […]
Caspase-3 activity in mouse hepatocytes and liver tissue lysates was assessed using the Caspase-3/CPP32 colorimetric assay kit (BioVision, Palo Alto, Calif., USA). […]

rat hepatocytes = test: DNA synthesis ([3H]thymidine incorporation) in cultured rat hepatocytes; details: for reduction of the effects of AR on DNA synthesis: AR 100 nM, PD98059 10 μM, SP600125 20 μM; for effect on DNA synthesis stimulated by AR (in words): AR 100 nM with PD153035 1 μM, LY294002 20 μM, SB202190 25 μM, TGFβ 8 ng/ml
Protocol: For DNA synthesis, rat hepatocytes were plated to a density of 3×10^4 cells/well in 96-well plates coated with collagen in MEM medium supplemented with 10% FCS. Five hours after plating, the medium was changed and cells were maintained in absence of serum for another 20 hours. DNA synthesis was assayed after 30 h of treatment with AR. A pulse of [^3H]thymidine was administered (1 μCi/well)(Amersham Biosciences, Piscataway, N.J., USA) 22 h after the addition of AR. Cells were harvested, and the incorporation of thymidine was determined with a scintillation counter. Evaluations were made of the effect of AR on DNA synthesis in the presence of MEK1 inhibitor, PD98059, PI-3K inhibitor, LY294002, p38 MAPK inhibitor, SB202190, JNK inhibitor, SP600125, and of the EGF-R tyrosine kinase activity inhibitor, PD153035—all supplied by Calbiochem.

[2] = system: AR gene expression in rat hepatocytes; test: AR gene expression in cultured rat hepatocytes (real time PCR); details: IL-1β 2 ng/ml; PGE2 10 μM; forskolin, hydrogen peroxide, menadione data not shown
Protocol: as §1
Total RNA was extracted using TRI reagent (Sigma). […] of RNA were treated with DNase I (Gibco-BRL) before reverse transcription, for which M-MLV enzyme was used (Gibco-BRL) in the presence of RNase OUT (Gibco-BRL). For each PCR reaction 1/10 of each preparation of cDNA was used. PCR products were subjected to electrophoresis in 2% agarose gels, followed by staining with ethidium bromide and quantification using Molecular Analyst software (Bio-Rad, Hercules, Calif., USA). Data were normalized with respect to β-actin gene expression levels. […] All primers were designed to distinguish between the amplification of genomic DNA and cDNA, and all products were sequenced to confirm specificity. The primers used are described below in Table I: […]
Real time PCR was performed using an iCycler (BioRad) and iQ SYBR Green Supermix (Bio-Rad). In order to monitor the specificity of final PCR products, the latter were analysed by fusion curves and electrophoresis. The amount of each transcript was expressed as n-fold the difference versus expression of the reference gene (β-actin)(2^ΔCt, where ΔCt represents the difference in threshold cycle between target genes and control gene).

| Compound | effect on DNA synthesis stimulated by AR (in words) (rat hepatocytes) | AR gene expression [2] | further results |
| --- | --- | --- | --- |
| COc1cccc(-c2cc(=O)c3ccccc3o2)c1N [PD98059, reference compound] | – | – | effect of inhibitor on the protection against apoptosis afforded by AR [1]: did not interfere; reduction of the effects of AR on DNA synthesis (rat hepatocytes): 70% |
| COc1cc2ncnc(Nc3cccc(Br)c3)c2cc1OC [PD153035, reference compound] | completely prevents | – | effect of inhibitor on the protection against apoptosis afforded by AR [1]: protection afforded by AR was lost |
| CCCCC[C@H](O)/C=C/[C@H]1[C@H](O)CC(=O)[C@@H]1C/C=C\CCCC(=O)O [PGE2, prostaglandin E2] | – | rapid induction | – |
| Oc1ccc(-c2nc(-c3ccncc3)c(-c3ccc(F)cc3)[nH]2)cc1 [SB202190] | no significant effect | – | – |
| Oc1c2ccccc2c2c3c(cccc13)N=N2 [SP600125] | – | – | reduction of the effects of AR on DNA synthesis (rat hepatocytes): 70% |
| OO [hydrogen peroxide] | – | no effect | – |
| CC1=CC(=O)c2ccccc2C1=O [menadione] | – | no effect | – |
| IL-1β: cytokine implicated in liver inflammatory and regenerative processes (Roche) | – | stimulate AR gene expression | – |
| transforming growth factor β [TGFβ] | abrogated | – | – |

Source: patent US20080064629A1, “Amphiregulin as a Protective Agent in Acute Hepatic Injury” (priority 2004, published 2008)
